Measured values from patent US20140213575A1, “6H-Thieno[3,2-f][1,2,4]triazolo[4,3-a][1,4]diazepines” (BAYER INTELLECTUAL PROPERTY GMBH, priority 2011, published 2014).

What was measured:
BRD4(1) = target: T1, BRD4(1) (Homo sapiens, UniProt O60885); assay: Binding assay BRD4/acetylated peptide H4 (TR-FRET/HTRF protein-protein interaction assay); conditions: inhibition of interaction BRD4(1) / acetylated histone H4 peptide, TR-FRET
T1 construct: BRD4(1) (amino acids 44-168); made in house; host or cells: E. coli
Description: Binding Assay BRD4/Acetylated Peptide H4 (“PRQ”)
To assess the BRD4 binding strength of the substances described in this application, their capacity for dose-dependent inhibition of the interaction between BRD4 and acetylated histone H4 was quantified.
For this purpose, a time-resolved fluorescence resonance energy transfer (TR-FRET) assay was used, which measures the binding between N-terminally His6-tagged BRD4(1) (amino acids 44-168) and a synthetic acetylated histone H4 (Ac-H4) peptide with the sequence GRGK(Ac)GGK(Ac)GLGK(Ac)GGAK(Ac)RHGSGSK-biotin. The recombinant BRD4 protein (produced in-house) was expressed in E. coli and was purified by (Ni-NTA) affinity chromatography and (Sephadex G-75) size-exclusion chromatography. The Ac-H4 peptide can be purchased for example from Biosyntan (Berlin, Germany).
In the assay, typically 11 different concentrations of each substance (0.1 nM, 0.33 nM, 1.1 nM, 3.8 nM, 13 nM, 44 nM, 0.15 μM, 0.51 μM, 1.7 μM, 5.9 μM and 20 μM) were measured as duplicates on the same microtitre plate. For this, 100-fold concentrated solutions in DMSO were prepared by serial dilutions (1:3.4) of a 2 mM stock solution in a clear, 384-well microtitre plate (Greiner Bio-One, Frickenhausen, Germany). From this, 50 nl was transferred to a black assay plate (Greiner Bio-One, Frickenhausen, Germany). The assay was started by supplying 2 μl of a 2.5-fold concentrated BRD4 solution (usually 10 to 50 nM final concentration in the 5 μl of the reaction volume) in aqueous assay buffer [50 mM HEPES pH 7.5, 50 mM sodium chloride (NaCl), 0.25 mM CHAPS and 0.05% serum albumin (BSA)] to the substances in the assay plate. This was followed by a 10-minute incubation step at 22° C. for the pre-equilibration of putative complexes between BRD4 and the substances.
The mixture was then incubated in the dark for one hour at 22° C. and then overnight at 4° C. The formation of BRD4/Ac-H4 complexes was determined by measuring the resonance energy transfer from the streptavidin-Eu-cryptate to the anti-6His-XL665 antibody that is present in the reaction. For this, the fluorescence emissions at 620 nm and 665 nm were measured after excitation at 330-350 nm in a TR-FRET measuring instrument, e.g. a Rubystar or Pherastar (both from BMG Lab Technologies, Offenburg, Germany) or a Viewlux (Perkin-Elmer). The ratio of the emissions at 665 nm and at […] was taken as an indicator of the amount of BRD4/Ac-H4 complexes formed.
The data obtained (ratio) were normalized, wherein 0% inhibition corresponded to the mean value from the measured values of a set of controls (usually 32 data points), in which all reagents were contained. 50 nl DMSO (100%) was used instead of test substances. Inhibition of 100% corresponded to the mean value from the measured values of a set of controls (usually 32 data points), in which all reagents except BRD4 were contained. The IC50 value was determined by regression analysis based on a 4-parameter equation (minimum, maximum, IC50, Hill; Y=Max+(Min−Max)/(1+(X/IC50)^Hill)) using Bayer's own analysis software.

MDA-MB-231 cells = assay: Cellular proliferation assay (alamarBlue) MDA-MB-231; assay type: cell-based; conditions: Homo sapiens, 96 hours, read-out: Breast MDA-MB-231 IC50
Procedure: (§1) In accordance with the invention, the ability of the substances to inhibit the proliferation of various cell lines was determined. Cell viability was determined by means of the alamarBlue® reagent (Invitrogen). […] After incubation overnight at 37° C., the fluorescence values were determined (CI values). […] Then the fluorescence values were determined (CO values).
(§2) The substances were investigated in the cell lines in Table 1, which for example represent the stated indications: […]

LAPC-4 cells = assay: Cellular proliferation assay (alamarBlue) LAPC-4; assay type: cell-based; conditions: Homo sapiens, LAPC4, 168 hours, read-out: Prostate LAPC-4 IC50
Procedure: as §1, §2

MOLM-13 cells = assay: Cellular proliferation assay (alamarBlue) MOLM-13; assay type: cell-based; conditions: Homo sapiens, 96 hours, read-out: Leukaemia MOLM-13 IC50
Procedure: as §1, §2

B16F10 cells = assay: Cellular proliferation assay (alamarBlue) B16F10; assay type: cell-based; conditions: Mus musculus, B16-F10, 96 hours, read-out: Melanoma B16F10 IC50
Procedure: as §1, §2

MOLP-8 cells = assay: Cellular proliferation assay (alamarBlue) MOLP-8; assay type: cell-based; conditions: Homo sapiens, 120 hours, read-out: Multiple myeloma MOLP-8 IC50
Procedure: as §1, §2

HeLa-MaTu cells = assay: Cellular proliferation assay (alamarBlue) HeLa-MaTu; assay type: cell-based; conditions: 96 hours, read-out: Cervix HeLa-MaTu IC50
Procedure: as §1, §2

VCaP cells = assay: Cellular proliferation assay (alamarBlue) VCaP; assay type: cell-based; conditions: Homo sapiens, 168 hours, read-out: Prostate VCaP IC50
Procedure: as §1, §2

MCF-7 cells = assay: Cellular proliferation assay (alamarBlue) MCF-7; assay type: cell-based; conditions: Homo sapiens, MCF7, 96 hours, read-out: Breast MCF-7 IC50
Procedure: as §1, §2

LNCaP cells = assay: Cellular proliferation assay (alamarBlue) LNCaP; assay type: cell-based; conditions: Homo sapiens, 168 hours, read-out: Prostate LNCaP IC50
Procedure: as §1, §2

Structure (SMILES): Cc1sc2c(c1C)C(c1ccc(Cl)cc1)=N[C@@H](CC(=O)N1CC3CCC1CC3)c1nnc(C)n1-2 [Example 8, (S)-1-(2-Azabicyclo[2,2,2]oct-2-yl)-2-[(6S)-4-(4-chlorophenyl)-2,3,9-trimethyl-6H-thieno[3,2-j][1,2,4]triazolo[4,3-a][1,4]diazepin-6-yl]ethanone]
- IC50 (BRD4(1)): 84 nM
- IC50 (MDA-MB-231 cells): 363 nM
- IC50 (LAPC-4 cells): 133 nM
- IC50 (MOLM-13 cells): 1060 nM
- IC50 (B16F10 cells): 297 nM

Structure (SMILES): Cc1sc2c(c1C)C(c1ccc(Cl)cc1)=N[C@@H](CC(=O)N1C3CCC1CC3)c1nnc(C)n1-2 [Example 9, (S)-1-(7-Azabicyclo[2.2.1]hept-7-yl)-2-[(6S)-4-(4-chlorophenyl)-2,3,9-trimethyl-6H-thieno[3,2-f][1,2,4]triazolo[4,3-a][1,4]diazepin-6-yl]ethanone]
- IC50 (BRD4(1)): 75 nM
- IC50 (MDA-MB-231 cells): 291 nM
- IC50 (LAPC-4 cells): 88 nM
- IC50 (MOLM-13 cells): 838 nM
- IC50 (B16F10 cells): 414 nM

Structure (SMILES): Cc1sc2c(c1C)C(c1ccc(Cl)cc1)=N[C@@H](CC(=O)NC1C[C@H]3CCC[C@@H](C1)N3)c1nnc(C)n1-2 (stereo partly drawn) [Example 4, N-[(1R,5S)-9-Azabicyclo[3.3.1]non-3-yl]-2-[(S)-4-(4-chlorophenyl)-2,3,9-trimethyl-6H-thieno[3,2-f][1,2,4]triazolo[4,3-a][1,4]diazepin-6-yl]acetamide]
- IC50 (BRD4(1)): 15 nM
- IC50 (MOLP-8 cells): 240 nM
- IC50 (HeLa-MaTu cells): 753 nM
- IC50 (MDA-MB-231 cells): 604 nM
- IC50 (VCaP cells): 71 nM
- IC50 (MCF-7 cells): 300 nM
- IC50 (LAPC-4 cells): 228 nM
- IC50 (MOLM-13 cells): 57 nM
- IC50 (LNCaP cells): 353 nM
- IC50 (B16F10 cells): 1050 nM

Structure (SMILES): Cc1sc2c(c1C)C(c1ccc(Cl)cc1)=N[C@@H](CC(=O)N1CCC3(CC1)COC3)c1nnc(C)n1-2 [Example 7]
- IC50 (BRD4(1)): 32 nM
- IC50 (MOLP-8 cells): 51 nM
- IC50 (HeLa-MaTu cells): 167 nM
- IC50 (MDA-MB-231 cells): 69 nM
- IC50 (VCaP cells): 35 nM
- IC50 (MCF-7 cells): 59 nM
- IC50 (LAPC-4 cells): 32 nM
- IC50 (MOLM-13 cells): 68 nM
- IC50 (LNCaP cells): 102 nM
- IC50 (B16F10 cells): 48 nM

Structure (SMILES): Cc1sc2c(c1C)C(c1ccc(Cl)cc1)=N[C@@H](CC(=O)N1CCC3(COC3)C1)c1nnc(C)n1-2 [Example 6, 2-[(S)-4-(4-Chlorophenyl)-2,3,9-trimethyl-6H-thieno[3,2-f][1,2,4]triazolo[4,3-a][1,4]diazepin-6-yl]-1-(2-oxa-6-azaspiro[3.4]oct-6-yl)ethan-1-one]
- IC50 (BRD4(1)): 29 nM
- IC50 (MOLP-8 cells): 110 nM
- IC50 (HeLa-MaTu cells): 251 nM
- IC50 (MDA-MB-231 cells): 122 nM
- IC50 (VCaP cells): 65 nM
- IC50 (MCF-7 cells): 98 nM
- IC50 (LAPC-4 cells): 72 nM
- IC50 (MOLM-13 cells): 131 nM
- IC50 (LNCaP cells): 36 nM
- IC50 (B16F10 cells): 87 nM

Structure (SMILES): Cc1sc2c(c1C)C(c1ccc(Cl)cc1)=N[C@@H](CC(=O)N1CC3CCC(C1)O3)c1nnc(C)n1-2 [Example 5, 2-[(S)-4-(4-Chlorophenyl)-2,3,9-trimethyl-6H-thieno[3,2-f][1,2,4]triazolo[4,3-a][1,4]diazepin-6-yl]-1-(8-oxa-3-azabicyclo[3.2.1]oct-3-yl)ethan-1-one]
- IC50 (BRD4(1)): 78 nM
- IC50 (MOLP-8 cells): 120 nM
- IC50 (HeLa-MaTu cells): 331 nM
- IC50 (MDA-MB-231 cells): 138 nM
- IC50 (VCaP cells): 67 nM
- IC50 (MCF-7 cells): 93 nM
- IC50 (LAPC-4 cells): 65 nM
- IC50 (MOLM-13 cells): 127 nM
- IC50 (LNCaP cells): 40 nM
- IC50 (B16F10 cells): 91 nM

Structure (SMILES): Cc1sc2c(c1C)C(c1ccc(Cl)cc1)=N[C@@H](CC(=O)NC1C[C@H]3CCC[C@@H](C1)N3C(=O)OC(C)(C)C)c1nnc(C)n1-2 (stereo partly drawn) [Example 3, (1R,5S)-tert-Butyl-3-({2-[(S)-4-(4-chlorophenyl)-2,3,9-trimethyl-6H-thieno[3,2-f][1,2,4]triazolo[4,3-a][1,4]diazepin-6-yl]acetyl}amino)-9-azabicyclo[3.3.1]nonane-9-carboxylate]
- IC50 (BRD4(1)): 240 nM
- IC50 (MOLP-8 cells): 170 nM
- IC50 (HeLa-MaTu cells): 40 nM
- IC50 (MDA-MB-231 cells): 129 nM
- IC50 (VCaP cells): 65 nM
- IC50 (MCF-7 cells): 20 nM
- IC50 (LAPC-4 cells): 41 nM
- IC50 (MOLM-13 cells): 83 nM
- IC50 (LNCaP cells): 17 nM
- IC50 (B16F10 cells): 29 nM
